Source: ChEMBL document CHEMBL2074111, “Functional characterization of the rat mdr1b encoded P-glycoprotein: not all inducing agents are substrates” (Carcinogenesis, 1997)

Molecular target: ATP-dependent translocase ABCB1 (Rattus norvegicus, UniProt P43245)
Experiment: TP_TRANSPORTER: intracellular accumulation in mdr1b-expressing NIH3T3 cells
Assay type: functional, cell-based
Conditions: mouse

Sequence of ATP-dependent translocase ABCB1 (P43245 whole entry): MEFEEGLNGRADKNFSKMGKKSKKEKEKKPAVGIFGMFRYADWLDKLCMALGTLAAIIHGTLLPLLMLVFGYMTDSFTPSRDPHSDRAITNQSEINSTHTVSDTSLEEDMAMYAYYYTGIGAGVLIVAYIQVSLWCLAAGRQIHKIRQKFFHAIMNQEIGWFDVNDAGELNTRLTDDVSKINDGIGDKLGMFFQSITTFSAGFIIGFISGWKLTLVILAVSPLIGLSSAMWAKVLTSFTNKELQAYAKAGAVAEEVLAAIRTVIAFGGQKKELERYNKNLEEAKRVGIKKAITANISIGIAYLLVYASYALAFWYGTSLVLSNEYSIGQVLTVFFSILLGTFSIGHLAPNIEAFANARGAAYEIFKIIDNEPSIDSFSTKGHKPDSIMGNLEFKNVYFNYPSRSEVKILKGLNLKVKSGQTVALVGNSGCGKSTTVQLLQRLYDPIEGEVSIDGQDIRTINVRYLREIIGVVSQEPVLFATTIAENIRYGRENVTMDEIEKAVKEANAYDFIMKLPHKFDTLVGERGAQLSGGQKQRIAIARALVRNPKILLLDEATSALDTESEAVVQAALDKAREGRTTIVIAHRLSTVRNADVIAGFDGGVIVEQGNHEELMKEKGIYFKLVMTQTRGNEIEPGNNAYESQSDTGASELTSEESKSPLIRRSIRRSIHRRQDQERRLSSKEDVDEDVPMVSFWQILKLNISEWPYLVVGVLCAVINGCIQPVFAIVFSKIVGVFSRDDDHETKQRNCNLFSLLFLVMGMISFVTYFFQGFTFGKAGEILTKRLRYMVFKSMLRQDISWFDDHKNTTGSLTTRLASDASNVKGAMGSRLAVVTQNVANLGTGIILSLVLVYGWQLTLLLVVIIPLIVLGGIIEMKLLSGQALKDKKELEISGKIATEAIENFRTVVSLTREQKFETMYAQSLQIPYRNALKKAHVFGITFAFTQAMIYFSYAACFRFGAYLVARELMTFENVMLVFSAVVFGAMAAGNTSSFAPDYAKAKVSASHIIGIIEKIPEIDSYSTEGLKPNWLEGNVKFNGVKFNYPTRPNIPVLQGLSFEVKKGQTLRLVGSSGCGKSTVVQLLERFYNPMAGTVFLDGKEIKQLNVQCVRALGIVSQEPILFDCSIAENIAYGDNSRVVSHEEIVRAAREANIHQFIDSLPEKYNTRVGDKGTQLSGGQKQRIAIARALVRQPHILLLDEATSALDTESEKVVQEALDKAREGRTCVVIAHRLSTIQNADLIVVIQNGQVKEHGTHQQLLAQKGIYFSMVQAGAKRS

## COC(=O)c1ccccc1-c1c2ccc(=N)cc-2oc2cc(N)ccc12.Cl [RHODAMINE123]
  Activity: substrate [+]
